{"source": "patent US20260285850A1", "about": "“SUBSTITUTED OXAZOLIDINONES AND IMIDAZOLINONES AS HERBICIDES” (FMC CORPORATION, priority 2023, published 2026)", "assay_type_in_all_cases": "in vivo", "key": {"[1]": {"system": "barnyardgrass (Echinochloa crus-galli)", "test": "Test A preemergence soil spray, visual injury rating 0-100", "conditions": "10 days, 0 = no effect, 100 = complete control", "summary_of_the_method": "(§1)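 Plants were grown in a loam soil-sand blend and treated with test chemical in a non-phytotoxic solvent mixture containing surfactant, either sprayed on soil preemergence or applied postemergence to 2-10 cm plants. After 10 days in a greenhouse, injury was scored visually against untreated controls, 0 meaning no effect and 100 complete control.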"}, "[2]": {"system": "blackgrass (Alopecurus myosuroides)", "test": "Test A preemergence soil spray, visual injury rating 0-100", "conditions": "10 days, 0 = no effect, 100 = complete control", "summary_of_the_method": "as §1"}, "corn (Zea mays) [3]": {"system": "corn (Zea mays)", "test": "Test A preemergence soil spray, visual injury rating 0-100", "conditions": "10 days, 0 = no effect, 100 = complete control", "summary_of_the_method": "as §1"}, "[4]": {"system": "green foxtail (Setaria viridis)", "test": "Test A preemergence soil spray, visual injury rating 0-100", "conditions": "10 days, 0 = no effect, 100 = complete control", "summary_of_the_method": "as §1"}, "kochia (Bassia scoparia) [5]": {"system": "kochia (Bassia scoparia)", "test": "Test A preemergence soil spray, visual injury rating 0-100", "conditions": "10 days, 0 = no effect, 100 = complete control", "summary_of_the_method": "as §1"}, "[6]": {"system": "oat, wild (wild oat, Avena fatua)", "test": "Test A preemergence soil spray, visual injury rating 0-100", "conditions": "10 days, 0 = no effect, 100 = complete control", "summary_of_the_method": "as §1"}, "[7]": {"system": "palmer (palmer amaranth, palmer pigweed, Amaranthus palmeri)", "test": "Test A preemergence soil spray, visual injury rating 0-100", "conditions": "10 days, 0 = no effect, 100 = complete control", "summary_of_the_method": "as §1"}, "[8]": {"system": "ragweed (common ragweed, Ambrosia artemisiifolia)", "test": "Test A preemergence soil spray, visual injury rating 0-100", "conditions": "10 days, 0 = no effect, 100 = complete control", "summary_of_the_method": "as §1"}, "[9]": {"system": "ryegrass, Italian (italian ryegrass, Lolium multiflorum)", "test": "Test A preemergence soil spray, visual injury rating 0-100", "conditions": "10 days, 0 = no effect, 100 = complete control", "summary_of_the_method": "as §1"}, "soybean (Glycine max) [10]": {"system": "soybean (Glycine max)", "test": "Test A preemergence soil spray, visual injury rating 0-100", "conditions": "10 days, 0 = no effect, 100 = complete control", "summary_of_the_method": "as §1"}, "[11]": {"system": "wheat (Triticum aestivum)", "test": "Test A preemergence soil spray, visual injury rating 0-100", "conditions": "10 days, 0 = no effect, 100 = complete control", "summary_of_the_method": "as §1"}, "[12]": {"system": "barnyardgrass (Echinochloa crus-galli)", "test": "Test A postemergence application, visual injury rating 0-100", "conditions": "10 days", "summary_of_the_method": "as §1"}, "[13]": {"system": "blackgrass (Alopecurus myosuroides)", "test": "Test A postemergence application, visual injury rating 0-100", "conditions": "10 days", "summary_of_the_method": "as §1"}, "corn (Zea mays) [14]": {"system": "corn (Zea mays)", "test": "Test A postemergence application, visual injury rating 0-100", "conditions": "10 days", "summary_of_the_method": "as §1"}, "[15]": {"system": "galium (catchweed bedstraw, Galium aparine)", "test": "Test A postemergence application, visual injury rating 0-100", "conditions": "10 days", "summary_of_the_method": "as §1"}, "[16]": {"system": "green foxtail (Setaria viridis)", "test": "Test A postemergence application, visual injury rating 0-100", "conditions": "10 days", "summary_of_the_method": "as §1"}, "[17]": {"system": "horseweed (Erigeron canadensis)", "test": "Test A postemergence application, visual injury rating 0-100", "conditions": "10 days", "summary_of_the_method": "as §1"}, "kochia (Bassia scoparia) [18]": {"system": "kochia (Bassia scoparia)", "test": "Test A postemergence application, visual injury rating 0-100", "conditions": "10 days", "summary_of_the_method": "as §1"}, "[19]": {"system": "oat, wild (wild oat, Avena fatua)", "test": "Test A postemergence application, visual injury rating 0-100", "conditions": "10 days", "summary_of_the_method": "as §1"}, "[20]": {"system": "palmer (palmer amaranth, palmer pigweed, Amaranthus palmeri)", "test": "Test A postemergence application, visual injury rating 0-100", "conditions": "10 days", "summary_of_the_method": "as §1"}, "[21]": {"system": "ragweed (common ragweed, Ambrosia artemisiifolia)", "test": "Test A postemergence application, visual injury rating 0-100", "conditions": "10 days", "summary_of_the_method": "as §1"}, "[22]": {"system": "ryegrass, Italian (italian ryegrass, Lolium multiflorum)", "test": "Test A postemergence application, visual injury rating 0-100", "conditions": "10 days", "summary_of_the_method": "as §1"}, "soybean (Glycine max) [23]": {"system": "soybean (Glycine max)", "test": "Test A postemergence application, visual injury rating 0-100", "conditions": "10 days", "summary_of_the_method": "as §1"}, "[24]": {"system": "wheat (Triticum aestivum)", "test": "Test A postemergence application, visual injury rating 0-100", "conditions": "10 days", "summary_of_the_method": "as §1"}, "[25]": {"system": "barnyardgrass (Echinochloa crusgalli)", "test": "Test B flooded paddy test, visual plant response rating 0-100", "conditions": "250 g ai/ha, Flood, applied to paddy water, evaluated after 13 days", "summary_of_the_method": "(§2)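 Plants were grown to the 2-leaf stage, then pots were flooded to 3 cm above the soil and test compounds were applied directly into the paddy water. Water depth was held there throughout; after 13 days in a greenhouse, injury was scored visually against untreated controls.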"}, "[26]": {"system": "ducksalad (Heteranthera limosa)", "test": "Test B flooded paddy test, visual plant response rating 0-100", "conditions": "250 g ai/ha, Flood, applied to paddy water, evaluated after 13 days", "summary_of_the_method": "as §2"}, "rice (Oryza sativa)": {"system": "rice (Oryza sativa)", "test": "Test B flooded paddy test, visual plant response rating 0-100", "conditions": "250 g ai/ha, Flood, applied to paddy water, evaluated after 13 days", "summary_of_the_method": "as §2"}, "[27]": {"system": "sedge, umbrella (small-flower umbrella sedge, Cyperus difformis)", "test": "Test B flooded paddy test, visual plant response rating 0-100", "conditions": "250 g ai/ha, Flood, applied to paddy water, evaluated after 13 days", "summary_of_the_method": "as §2"}, "[28]": {"conditions": "31 g ai/ha, postemergence, 0 = no effect, 100 = complete control"}, "[29]": {"conditions": "Postemergence, 125 g ai/ha, 0 is no effect, 100 is complete control"}}, "data": [{"smiles": "CSCCOC(=O)C1=CCC(NC(=O)C2(C)CN(c3cc(F)cc(F)c3)C(=O)O2)C1", "note": "(stereo not shown) [Compound 22]", "values": [{"measurement": "Barnyardgrass plant response rating (0-100)", "setting": "[1]; 31 g ai/ha", "value": 0}, {"measurement": "Barnyardgrass plant response rating (0 to 100 scale)", "setting": "[1]; 125 g ai/ha", "value": 0}, {"measurement": "Blackgrass plant response rating (0-100)", "setting": "[2]; 31 g ai/ha", "value": 0}, {"measurement": "Blackgrass plant response rating (0 to 100 scale)", "setting": "[2]; 125 g ai/ha", "value": 20}, {"measurement": "Corn plant response rating (0-100)", "setting": "corn (Zea mays) [3]; 31 g ai/ha", "value": 20}, {"measurement": "Corn plant response rating (0 to 100 scale)", "setting": "corn (Zea mays) [3]; 125 g ai/ha", "value": 20}, {"measurement": "Foxtail, Green plant response rating (0-100)", "setting": "[4]; 31 g ai/ha", "value": 0}, {"measurement": "Foxtail, Green plant response rating (0 to 100 scale)", "setting": "[4]; 125 g ai/ha", "value": 30}, {"measurement": "Kochia plant response rating (0-100)", "setting": "kochia (Bassia scoparia) [5]; 31 g ai/ha", "value": 0}, {"measurement": "Kochia plant response rating (0 to 100 scale)", "setting": "kochia (Bassia scoparia) [5]; 125 g ai/ha", "value": 0}, {"measurement": "Oat, Wild plant response rating (0-100)", "setting": "[6]; 31 g ai/ha", "value": 0}, {"measurement": "Oat, Wild plant response rating (0 to 100 scale)", "setting": "[6]; 125 g ai/ha", "value": 20}, {"measurement": "Amaranth, Palmer plant response rating (0-100)", "setting": "[7]; 31 g ai/ha", "value": 0}, {"measurement": "Amaranth, Palmer plant response rating (0 to 100 scale)", "setting": "[7]; 125 g ai/ha", "value": 80}, {"measurement": "Ragweed plant response rating (0-100)", "setting": "[8]; 31 g ai/ha", "value": 0}, {"measurement": "Ragweed plant response rating (0 to 100 scale)", "setting": "[8]; 125 g ai/ha", "value": 0}, {"measurement": "Ryegrass, Italian plant response rating (0-100)", "setting": "[9]; 31 g ai/ha", "value": 0}, {"measurement": "Ryegrass, Italian plant response rating (0 to 100 scale)", "setting": "[9]; 125 g ai/ha", "value": 50}, {"measurement": "Soybean plant response rating (0-100)", "setting": "soybean (Glycine max) [10]; 31 g ai/ha", "value": 0}, {"measurement": "Soybean plant response rating (0 to 100 scale)", "setting": "soybean (Glycine max) [10]; 125 g ai/ha", "value": 10}, {"measurement": "Wheat plant response rating (0-100)", "setting": "[11]; 31 g ai/ha", "value": 20}, {"measurement": "Wheat plant response rating (0 to 100 scale)", "setting": "[11]; 125 g ai/ha", "value": 60}, {"measurement": "Barnyardgrass plant response rating (0-100)", "setting": "[12]; [28]", "value": 70}, {"measurement": "Barnyardgrass plant response rating (0 to 100 scale)", "setting": "[12]; [29]", "value": 90}, {"measurement": "Blackgrass plant response rating (0-100)", "setting": "[13]; [28]", "value": 60}, {"measurement": "Blackgrass plant response rating (0 to 100 scale)", "setting": "[13]; [29]", "value": 80}, {"measurement": "Corn plant response rating (0-100)", "setting": "corn (Zea mays) [14]; [28]", "value": 50}, {"measurement": "Corn plant response rating (0 to 100 scale)", "setting": "corn (Zea mays) [14]; [29]", "value": 100}, {"measurement": "Galium plant response rating (0-100)", "setting": "[15]; [28]", "value": 60}, {"measurement": "Galium plant response rating (0 to 100 scale)", "setting": "[15]; [29]", "value": 80}, {"measurement": "Foxtail, Green plant response rating (0-100)", "setting": "[16]; [28]", "value": 20}, {"measurement": "Foxtail, Green plant response rating (0 to 100 scale)", "setting": "[16]; [29]", "value": 80}, {"measurement": "Horseweed plant response rating (0-100)", "setting": "[17]; [28]", "value": 0}, {"measurement": "Horseweed plant response rating (0 to 100 scale)", "setting": "[17]; [29]", "value": 30}, {"measurement": "Kochia plant response rating (0-100)", "setting": "kochia (Bassia scoparia) [18]; [28]", "value": 60}, {"measurement": "Kochia plant response rating (0 to 100 scale)", "setting": "kochia (Bassia scoparia) [18]; [29]", "value": 90}, {"measurement": "Oat, Wild plant response rating (0-100)", "setting": "[19]; [28]", "value": 40}, {"measurement": "Oat, Wild plant response rating (0 to 100 scale)", "setting": "[19]; [29]", "value": 70}, {"measurement": "Amaranth, Palmer plant response rating (0-100)", "setting": "[20]; [28]", "value": 20}, {"measurement": "Amaranth, Palmer / Pigweed, Palmer plant response rating (0 to 100 scale)", "setting": "[20]; [29]", "value": 80}, {"measurement": "Ragweed plant response rating (0-100)", "setting": "[21]; [28]", "value": 0}, {"measurement": "Ragweed plant response rating (0 to 100 scale)", "setting": "[21]; [29]", "value": 50}, {"measurement": "Ryegrass, Italian plant response rating (0-100)", "setting": "[22]; [28]", "value": 60}, {"measurement": "Ryegrass, Italian plant response rating (0 to 100 scale)", "setting": "[22]; [29]", "value": 70}, {"measurement": "Soybean plant response rating (0-100)", "setting": "soybean (Glycine max) [23]; [28]", "value": 70}, {"measurement": "Soybean plant response rating (0 to 100 scale)", "setting": "soybean (Glycine max) [23]; [29]", "value": 90}, {"measurement": "Wheat plant response rating (0-100)", "setting": "[24]; [28]", "value": 90}, {"measurement": "Wheat plant response rating (0 to 100 scale)", "setting": "[24]; [29]", "value": 90}, {"measurement": "Plant response rating, Barnyardgrass (0 to 100 scale, 0 is no effect and 100 is complete control)", "setting": "[25]", "value": 0}, {"measurement": "Plant response rating, Ducksalad (0 to 100 scale, 0 is no effect and 100 is complete control)", "setting": "[26]", "value": 0}, {"measurement": "Plant response rating, Rice (0 to 100 scale, 0 is no effect and 100 is complete control)", "setting": "rice (Oryza sativa)", "value": 0}, {"measurement": "Plant response rating, Sedge, Umbrella (0 to 100 scale, 0 is no effect and 100 is complete control)", "setting": "[27]", "value": 0}]}]}
